# pIC50: −log10 of the molar value.
# Tests used:
# MCF7 = experiment: Antiproliferative activity against human MCF7 cells after 72 hrs by MTT assay; format: functional, cell-based; conditions: MCF7, 72 h
# T47D = experiment: Antiproliferative activity against human T47D cells after 72 hrs by MTT assay; format: functional, cell-based
# MDA-MB-231 = experiment: Antiproliferative activity against human MDA-MB-231 cells after 72 hrs by MTT assay; format: functional, cell-based; conditions: MDA-MB-231, 72 h
# MDA-MB-361 = experiment: Antiproliferative activity against human MDA-MB-361 cells after 72 hrs by MTT assay; format: functional, cell-based; conditions: MDA-MB-361, 72 h
# [1] = Antiproliferative activity against mouse L5178 cells after 72 hrs by MTT assay; format: functional, cell-based; conditions: L5178, 72 h
# [2] = Antiproliferative activity against mouse L5178 cells harboring human ABCB1 after 72 hrs by MTT assay; format: functional, cell-based; conditions: L5178, 72 h
# [3] = target: T1, ATP-dependent translocase ABCB1 (Homo sapiens, UniProt P08183); experiment: Inhibition of human ABCB1 expressed in mouse L5178 cells assessed as rhodamine-123 accumulation by measuring fluorescence activity ratio at 2 uM pretreated for 10 mins followed by rhodamine-123 addition measured after 20 mins by flow cytometric analysis; format: cell-based
# [4] = target: T1, ATP-dependent translocase ABCB1; experiment: Inhibition of human ABCB1 expressed in mouse L5178 cells assessed as rhodamine-123 accumulation by measuring fluorescence activity ratio at 20 uM pretreated for 10 mins followed by rhodamine-123 addition measured after 20 mins by flow cytometric analysis; format: cell-based
# [5] = Selectivity ratio of IC50 for human MCF7 cells to IC50 for human T47D cells; format: functional
# [6] = target: T1, ATP-dependent translocase ABCB1; experiment: Inhibition of human ABCB1 expressed in mouse L5178 cells assessed as potentiation of doxorubicin-induced cytotoxicity by measuring combination index at ED50 in presence of 10.2:1 ratio of doxorubicin to test compound after 48 hrs by MTT assay; format: cell-based
# [7] = target: T1, ATP-dependent translocase ABCB1; experiment: Inhibition of human ABCB1 expressed in mouse L5178 cells assessed as potentiation of doxorubicin-induced cytotoxicity by measuring combination index at ED50 in presence of 20.4:1 ratio of doxorubicin to test compound after 48 hrs by MTT assay; format: cell-based
# [8] = target: T1, ATP-dependent translocase ABCB1; experiment: Inhibition of human ABCB1 expressed in mouse L5178 cells assessed as potentiation of doxorubicin-induced cytotoxicity by measuring combination index at ED50 in presence of 81.5:1 ratio of doxorubicin to test compound after 48 hrs by MTT assay; format: cell-based
# [9] = Potentiation of doxorubicin-induced cytotoxicity in mouse L5178 cells assessed as combination index at ED50 in presence of 81.5:1 ratio of doxorubicin to test compound after 48 hrs by MTT assay; format: functional
# [10] = Potentiation of doxorubicin-induced cytotoxicity in mouse L5178 cells assessed as combination index at ED50 in presence of 163:1 ratio of doxorubicin to test compound after 48 hrs by MTT assay; format: functional
# [11] = Potentiation of doxorubicin-induced cytotoxicity in mouse L5178 cells assessed as combination index at ED50 in presence of 326:1 ratio of doxorubicin to test compound after 48 hrs by MTT assay; format: functional
# [12] = target: T1, ATP-dependent translocase ABCB1; experiment: Inhibition of human ABCB1 expressed in mouse L5178 cells assessed as potentiation of doxorubicin-induced cytotoxicity by measuring combination index at ED75 in presence of 10.2:1 ratio of doxorubicin to test compound after 48 hrs by MTT assay; format: cell-based
# [13] = target: T1, ATP-dependent translocase ABCB1; experiment: Inhibition of human ABCB1 expressed in mouse L5178 cells assessed as potentiation of doxorubicin-induced cytotoxicity by measuring combination index at ED75 in presence of 20.4:1 ratio of doxorubicin to test compound after 48 hrs by MTT assay; format: cell-based
# [14] = target: T1, ATP-dependent translocase ABCB1; experiment: Inhibition of human ABCB1 expressed in mouse L5178 cells assessed as potentiation of doxorubicin-induced cytotoxicity by measuring combination index at ED75 in presence of 81.5:1 ratio of doxorubicin to test compound after 48 hrs by MTT assay; format: cell-based
# [15] = Potentiation of doxorubicin-induced cytotoxicity in mouse L5178 cells assessed as combination index at ED75 in presence of 81.5:1 ratio of doxorubicin to test compound after 48 hrs by MTT assay; format: functional
# [16] = Potentiation of doxorubicin-induced cytotoxicity in mouse L5178 cells assessed as combination index at ED75 in presence of 163:1 ratio of doxorubicin to test compound after 48 hrs by MTT assay; format: functional
# [17] = Potentiation of doxorubicin-induced cytotoxicity in mouse L5178 cells assessed as combination index at ED75 in presence of 326:1 ratio of doxorubicin to test compound after 48 hrs by MTT assay; format: functional
# [18] = target: T1, ATP-dependent translocase ABCB1; experiment: Inhibition of human ABCB1 expressed in mouse L5178 cells assessed as potentiation of doxorubicin-induced cytotoxicity by measuring combination index at ED90 in presence of 10.2:1 ratio of doxorubicin to test compound after 48 hrs by MTT assay; format: cell-based
# [19] = target: T1, ATP-dependent translocase ABCB1; experiment: Inhibition of human ABCB1 expressed in mouse L5178 cells assessed as potentiation of doxorubicin-induced cytotoxicity by measuring combination index at ED90 in presence of 20.4:1 ratio of doxorubicin to test compound after 48 hrs by MTT assay; format: cell-based
# [20] = target: T1, ATP-dependent translocase ABCB1; experiment: Inhibition of human ABCB1 expressed in mouse L5178 cells assessed as potentiation of doxorubicin-induced cytotoxicity by measuring combination index at ED90 in presence of 81.5:1 ratio of doxorubicin to test compound after 48 hrs by MTT assay; format: cell-based
# [21] = Potentiation of doxorubicin-induced cytotoxicity in mouse L5178 cells assessed as combination index at ED90 in presence of 81.5:1 ratio of doxorubicin to test compound after 48 hrs by MTT assay; format: functional
# [22] = Potentiation of doxorubicin-induced cytotoxicity in mouse L5178 cells assessed as combination index at ED90 in presence of 163:1 ratio of doxorubicin to test compound after 48 hrs by MTT assay; format: functional
# [23] = Potentiation of doxorubicin-induced cytotoxicity in mouse L5178 cells assessed as combination index at ED90 in presence of 326:1 ratio of doxorubicin to test compound after 48 hrs by MTT assay; format: functional
# SH-SY5Y = experiment: Antiproliferative activity against human SH-SY5Y cells after 48 hrs by MTT assay
# T1 sequence (P08183 whole entry): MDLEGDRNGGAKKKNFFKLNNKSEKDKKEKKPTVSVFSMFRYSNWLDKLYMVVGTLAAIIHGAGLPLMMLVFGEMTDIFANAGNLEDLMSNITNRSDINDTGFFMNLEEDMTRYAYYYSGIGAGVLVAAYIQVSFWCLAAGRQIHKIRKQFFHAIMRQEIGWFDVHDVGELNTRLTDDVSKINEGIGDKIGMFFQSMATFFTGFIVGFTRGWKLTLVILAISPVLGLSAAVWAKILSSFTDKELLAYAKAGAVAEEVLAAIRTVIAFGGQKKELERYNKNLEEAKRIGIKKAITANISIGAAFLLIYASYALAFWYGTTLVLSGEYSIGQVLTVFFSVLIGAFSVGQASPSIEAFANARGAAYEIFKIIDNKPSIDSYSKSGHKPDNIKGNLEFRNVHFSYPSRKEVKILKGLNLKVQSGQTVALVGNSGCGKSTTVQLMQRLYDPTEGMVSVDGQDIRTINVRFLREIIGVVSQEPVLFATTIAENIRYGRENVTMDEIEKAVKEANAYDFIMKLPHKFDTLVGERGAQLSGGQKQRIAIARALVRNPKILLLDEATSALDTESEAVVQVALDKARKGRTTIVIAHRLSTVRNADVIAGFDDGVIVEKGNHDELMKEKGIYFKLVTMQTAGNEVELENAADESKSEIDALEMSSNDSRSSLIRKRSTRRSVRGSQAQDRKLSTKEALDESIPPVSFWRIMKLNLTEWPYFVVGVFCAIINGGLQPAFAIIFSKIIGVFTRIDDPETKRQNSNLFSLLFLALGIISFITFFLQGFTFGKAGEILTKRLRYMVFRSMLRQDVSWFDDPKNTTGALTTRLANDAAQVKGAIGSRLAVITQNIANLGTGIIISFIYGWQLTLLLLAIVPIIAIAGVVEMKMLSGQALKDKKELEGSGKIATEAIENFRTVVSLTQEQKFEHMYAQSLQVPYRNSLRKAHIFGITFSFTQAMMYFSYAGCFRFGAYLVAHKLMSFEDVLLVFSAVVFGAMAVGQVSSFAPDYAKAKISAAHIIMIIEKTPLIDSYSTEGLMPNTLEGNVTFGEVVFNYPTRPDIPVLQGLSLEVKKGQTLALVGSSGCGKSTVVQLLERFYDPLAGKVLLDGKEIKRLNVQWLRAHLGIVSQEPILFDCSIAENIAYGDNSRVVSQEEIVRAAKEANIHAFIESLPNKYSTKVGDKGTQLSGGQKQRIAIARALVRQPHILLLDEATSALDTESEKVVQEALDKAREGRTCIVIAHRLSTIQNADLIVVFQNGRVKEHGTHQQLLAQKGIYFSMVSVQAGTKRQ
Structure (SMILES),pIC50 (MCF7),pIC50 (T47D),pIC50 (MDA-MB-231),pIC50 (MDA-MB-361),Ratio [3],Ratio [4],pIC50 (SH-SY5Y),pIC50 [1],pIC50 [2],CI [6],CI [7],CI [8],CI [9],CI [10],CI [11],CI [12],CI [13],CI [14],CI [15],CI [16],also measured
CC(C)(O)CC[C@@H]1OC(C)(C)O[C@]1(C)[C@H]1CC=C2C3=CC(=O)[C@@H]4C[C@H]5OC(C)(C)O[C@H]5C[C@]4(C)[C@H]3CC[C@@]21C,4.52,4.96,4.41,4.86,1.28,57.36,4.68,4.84,4.71,0.55,0.54,1.09,0.99,0.93,0.9,0.45,0.44,0.87,0.89,0.89,Ratio IC50 [5]: 3; CI [17]: 0.81; CI [18]: 0.39; CI [19]: 0.37; CI [20]: 0.69; CI [21]: 0.82; CI [22]: 0.86; CI [23]: 0.73
CC(C)(F)CC[C@@H]1OC(C)(C)O[C@]1(C)[C@H]1CC=C2C3=CC(=O)[C@@H]4C[C@H]5OC(C)(C)O[C@H]5C[C@]4(C)[C@H]3CC[C@@]21C,4.36,4.76,4.30,4.93,31.15,109.37,4.73,4.85,4.76,0.56,0.48,0.78,0.73,0.8,0.79,0.34,0.36,0.73,0.8,0.87,Ratio IC50 [5]: 3; CI [17]: 0.84; CI [18]: 0.22; CI [19]: 0.28; CI [20]: 0.69; CI [21]: 0.89; CI [22]: 0.95; CI [23]: 0.9
COc1cccc2c1C(=O)c1c(O)c3c(c(O)c1C2=O)C[C@@](O)(C(=O)CO)C[C@@H]3O[C@H]1C[C@H](N)[C@H](O)[C@H](C)O1 [DOXORUBICIN],,,,,,,6.85,6.64,5.45,,,,,,,,,,,,

# Now from value to compound, other results behind:
pIC50 (MCF7),pIC50 (T47D),pIC50 (MDA-MB-231),pIC50 (MDA-MB-361),Ratio [3],Ratio [4],pIC50 (SH-SY5Y),Structure (SMILES),pIC50 [1],pIC50 [2],CI [6],CI [7],CI [8],CI [9],CI [10],CI [11],CI [12],CI [13],CI [14],CI [15],CI [16],also measured
3.89,4.31,4.01,4.27,11.02,89.78,3.90,CC(C)(F)CC[C@@H]1OC(C)(C)O[C@]1(C)[C@H]1CC[C@@]2(F)C3=CC(=O)[C@@H]4C[C@H]5OC(C)(C)O[C@H]5C[C@]4(C)[C@H]3CC[C@]12C,4.05,4.08,0.23,0.21,0.24,0.7,0.6,0.72,0.11,0.12,0.16,0.42,0.44,Ratio IC50 [5]: 3; CI [17]: 0.59; CI [18]: 0.06; CI [19]: 0.07; CI [20]: 0.11; CI [21]: 0.27; CI [22]: 0.34; CI [23]: 0.52
4.20,4.15,4.31,4.51,1.59,38.62,4.15,CC(C)(F)CC[C@@H]1OC(C)(C)O[C@]1(C)[C@H]1CC[C@@]2(O)C3=CC(=O)[C@@H]4C[C@H]5OC(C)(C)O[C@H]5C[C@]4(C)[C@H]3CC[C@]12C,4.32,4.30,0.19,0.19,0.35,0.8,0.85,1.04,0.17,0.19,0.33,0.66,0.76,CI [17]: 0.96; CI [18]: 0.16; CI [19]: 0.19; CI [20]: 0.33; CI [21]: 0.56; CI [22]: 0.71; CI [23]: 0.91
4.12,4.07,3.97,4.16,3.33,11.28,3.90,CC(C)(O)CC[C@@H]1OC(C)(C)O[C@]1(C)[C@H]1CC[C@@]2(O)C3=CC(=O)[C@@H]4C[C@H]5OC(C)(C)O[C@H]5C[C@]4(C)[C@H]3CC[C@]12C,4.08,3.97,0.31,0.27,0.39,0.74,0.67,0.61,0.18,0.14,0.22,0.71,0.55,CI [17]: 0.55; CI [18]: 0.11; CI [19]: 0.07; CI [20]: 0.12; CI [21]: 0.68; CI [22]: 0.46; CI [23]: 0.51
